The compounds below were run on parasites (ring stage, in human red blood cell culture) (assay: Parasite LDH growth assay (antiparasite potency, Parasite Assay)). Conditions: Plasmodium falciparum, Erythrocyte, 72 h, 0.7% rings, 2% haematocrit, 72 hours at 37° C., LDH readout of parasite growth.
Type: cell-based, Plasmodium falciparum
Outline: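 Ring-stage parasites at 0.7% parasitemia and 2% haematocrit, in RPMI-Hepes/bicarbonate with 5% heat-inactivated human serum and 0.5% albumax, were added to compound-containing medium. Cultures grew 72 h at 37 °C in gassed humidified boxes. Plates were then frozen overnight at −80 °C, thawed 4 h, and growth was measured by LDH assay.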

Structure (SMILES) | EC50
CC1(C)CC(=O)N([C@@H]2CC(C)(C)c3ccc(C(=O)N[C@@H]4c5ccccc5OC(C)(C)[C@H]4O)cc32)C(=N)N1 [Example 160, (3R)-N-[(3S,4R)-3-hydroxy-2,2-dimethyl-chroman-4-yl]-3-(2-imino-4,4-dimethyl-6-oxo-hexahydropyrimidin-1-yl)-1,1-dimethyl-indane-5-carboxamide] | 8.3 nM
CCC1(CC)CC(=O)N(C2CCCc3ccc(C(=O)N[C@@H]4c5ccccc5OC[C@@]4(C)O)cc32)C(=N)N1 (stereo partly drawn) [Example 161, 8-(4,4-diethyl-2-imino-6-oxotetrahydropyrimidin-1(2H)-yl)-N-((3S,4R)-3-hydroxy-3-methylchroman-4-yl)-5,6,7,8-tetrahydronaphthalene-2-carboxamide] | 0.8 nM
CC1(C)CC(=O)N([C@H]2c3cc(C(=O)N[C@@H]4c5ccccc5OC(C)(C)[C@H]4O)ccc3CC2(C)C)C(=N)N1 [Example 162, (3R)-N-[(3S,4R)-3-hydroxy-2,2-dimethyl-chroman-4-yl]-3-(2-imino-4,4-dimethyl-6-oxo-hexahydropyrimidin-1-yl)-2,2-dimethyl-indane-5-carboxamide] | 7.5 nM
CCC1(CC)CC(=O)N([C@H]2c3cc(C(=O)N[C@@H]4c5ccccc5C[C@@]4(C)O)ccc3OC2(C)C)C(=N)N1 [Example 163, (3S)-3-(4,4-diethyl-2-imino-6-oxo-hexahydropyrimidin-1-yl)-N-[(1R,2R)-2-hydroxy-2-methyl-indan-1-yl]-2,2-dimethyl-3H-benzofuran-5-carboxamide] | 8.4 nM
CCC1(CC)CC(=O)N([C@@H]2C[C@@H](C)Oc3ccc(C(=O)N[C@@H]4c5ccccc5C[C@@]4(C)O)cc32)C(=N)N1 [Example 164, (2R,4R)-4-(4,4-diethyl-2-imino-6-oxo-hexahydropyrimidin-1-yl)-N-[(1R,2R)-2-hydroxy-2-methyl-indan-1-yl]-2-methyl-chromane-6-carboxamide] | 2.4 nM
CCC1(CC)CC(=O)N([C@H]2c3cc(C(=O)N[C@@H]4c5ccccc5C[C@H]4O)ccc3CC[C@@H]2OC)C(=N)N1 [Example 165, (3S,4S)-4-(4,4-diethyl-2-imino-6-oxo-hexahydropyrimidin-1-yl)-N-[(1R,2R)-2-hydroxyindan-1-yl]-3-methoxy-tetralin-6-carboxamide] | 3.4 nM
CC[C@]1(C)CC(=O)N([C@@H]2c3cc(C(=O)N[C@@H]4c5ccccc5OC(C)(C)[C@H]4O)ccc3C[C@@H]2C)C(=N)N1 [Example 166, (2S,3S)-3-[(4R)-4-ethyl-2-imino-4-methyl-6-oxo-hexahydropyrimidin-1-yl]-N-[(3S,4R)-3-hydroxy-2,2-dimethyl-chroman-4-yl]-2-methyl-indane-5-carboxamide] | 154 nM
CC[C@]1(C)CC(=O)N([C@@H]2c3cc(C(=O)N[C@@H]4c5ccccc5OC(C)(C)[C@H]4O)ccc3C[C@H]2C)C(=N)N1 [Example 167, (2R,3S)-3-[(4R)-4-ethyl-2-imino-4-methyl-6-oxo-hexahydropyrimidin-1-yl]-N-[(3S,4R)-3-hydroxy-2,2-dimethyl-chroman-4-yl]-2-methyl-indane-5-carboxamide] | 250 nM
CC[C@]1(C)CC(=O)N([C@H]2c3cc(C(=O)N[C@@H]4c5ccccc5OC(C)(C)[C@H]4O)ccc3C[C@H]2C)C(=N)N1 [Example 168, (2R,3R)-3-[(4R)-4-ethyl-2-imino-4-methyl-6-oxo-hexahydropyrimidin-1-yl]-N-[(3S,4R)-3-hydroxy-2,2-dimethyl-chroman-4-yl]-2-methyl-indane-5-carboxamide] | 0.4 nM
CC[C@]1(C)CC(=O)N([C@H]2c3cc(C(=O)N[C@@H]4c5ccccc5OC(C)(C)[C@H]4O)ccc3C[C@@H]2C)C(=N)N1 [Example 169, (2S,3R)-3-[(4R)-4-ethyl-2-imino-4-methyl-6-oxo-hexahydropyrimidin-1-yl]-N-[(3S,4R)-3-hydroxy-2,2-dimethyl-chroman-4-yl]-2-methyl-indane-5-carboxamide] | 0.3 nM
CC[C@]1(C)CC(=O)N([C@H]2C[C@H](C)c3ccc(C(=O)N[C@@H]4c5ccccc5OC(C)(C)[C@H]4O)cc32)C(=N)N1 [Example 170, (1S,3S)-3-[(4R)-4-ethyl-2-imino-4-methyl-6-oxo-hexahydropyrimidin-1-yl]-N-[(3S,4R)-3-hydroxy-2,2-dimethyl-chroman-4-yl]-1-methyl-indane-5-carboxamide] | 184 nM
CC[C@]1(C)CC(=O)N([C@@H]2C[C@@H](C)c3ccc(C(=O)N[C@@H]4c5ccccc5OC(C)(C)[C@H]4O)cc32)C(=N)N1 [Example 171, (1R,3R)-3-[(4R)-4-ethyl-2-imino-4-methyl-6-oxo-hexahydropyrimidin-1-yl]-N-[(3S,4R)-3-hydroxy-2,2-dimethyl-chroman-4-yl]-1-methyl-indane-5-carboxamide] | 0.7 nM
CC1(C)CC(=O)N([C@@H]2CCOc3ccc(C(=O)N[C@@H]4c5ccccc5OC(C)(C)[C@@]4(C)O)cc32)C(=N)N1 [Example 172, (4R)-N-[(3S,4R)-3-hydroxy-2,2,3-trimethyl-chroman-4-yl]-4-(2-imino-4,4-dimethyl-6-oxo-hexahydropyrimidin-1-yl)chromane-6-carboxamide] | 0.9 nM
CCC1(CC)CC(=O)N([C@@H]2CCOc3ccc(C(=O)N[C@@H]4c5ccccc5OC[C@H]4OC)cc32)C(=N)N1 [Example 173, (4R)-4-(4,4-diethyl-2-imino-6-oxo-hexahydropyrimidin-1-yl)-N-[(3S,4R)-3-methoxychroman-4-yl]chromane-6-carboxamide] | 2.8 nM
CC[C@]1(C)CC(=O)N([C@H]2c3cc(C(=O)N[C@@H]4c5ccccc5C[C@H]4O)ccc3OC[C@@H]2COC)C(=N)N1 [Example 174, (3S,4R)-4-[(4R)-4-ethyl-2-imino-4-methyl-6-oxo-hexahydropyrimidin-1-yl]-N-[(1R,2R)-2-hydroxyindan-1-yl]-3-(methoxymethyl)chromane-6-carboxamide] | 1.9 nM
COCC1(C)CC(N2C(=N)NC(C)(C)CC2=O)c2cc(C(=O)N[C@@H]3c4ccccc4C[C@H]3O)ccc2O1 (stereo partly drawn) [Example 175, N-[(1R,2R)-2-hydroxyindan-1-yl]-4-(2-imino-4,4-dimethyl-6-oxo-hexahydropyrimidin-1-yl)-2-(methoxymethyl)-2-methyl-chromane-6-carboxamide] | 31 nM
CC[C@@]1(C)CC(=O)N(C2c3cc(C(=O)N[C@H]4CC(C)(C)Oc5ccccc54)ccc3OCC2O)C(=N)N1 (stereo partly drawn) [Example 177, N-[(4S)-2,2-dimethylchroman-4-yl]-4-[(4S)-4-ethyl-2-imino-4-methyl-6-oxo-hexahydropyrimidin-1-yl]-3-hydroxy-chromane-6-carboxamide] | 66.9 nM
CC[C@]1(C)CC(=O)N(C2c3cc(C(=O)N[C@@H]4c5ccccc5C[C@@]4(C)O)ccc3OCC2OC)C(=N)N1 (stereo partly drawn) [Example 179, 4-[(4R)-4-ethyl-2-imino-4-methyl-6-oxo-hexahydropyrimidin-1-yl]-N-[(1R,2R)-2-hydroxy-2-methyl-indan-1-yl]-3-methoxy-chromane-6-carboxamide] | 65.4 nM
CC[C@]1(C)CC(=O)N(C2c3cc(C(=O)N[C@@H]4c5ccccc5C[C@H]4O)ccc3OCC2(C)OC)C(=N)N1 (stereo partly drawn) [Example 180, 4-[(4R)-4-ethyl-2-imino-4-methyl-6-oxo-hexahydropyrimidin-1-yl]-N-[(1R,2R)-2-hydroxyindan-1-yl]-3-methoxy-3-methyl-chromane-6-carboxamide] | 65.4 nM
CC1(C)CC(=O)N([C@H]2c3cc(C(=O)N[C@@H]4c5ccccc5OC(C)(C)[C@H]4O)ccc3OC2(C)C)C(=N)N1 [Example 182, (3S)-N-[(3S,4R)-3-hydroxy-2,2-dimethyl-chroman-4-yl]-3-(2-imino-4,4-dimethyl-6-oxo-hexahydropyrimidin-1-yl)-2,2-dimethyl-3H-benzofuran-5-carboxamide] | 6.1 nM
COCC1(C)Oc2ccc(C(=O)N[C@@H]3c4ccccc4C[C@]3(C)O)cc2C1N1C(=N)NC(C)(C)CC1=O (stereo partly drawn) [Example 183, N-[(1R,2S)-2-hydroxy-2-methyl-indan-1-yl]-3-(2-imino-4,4-dimethyl-6-oxo-hexahydropyrimidin-1-yl)-2-(methoxymethyl)-2-methyl-3H-benzofuran-5-carboxamide] | 71.4 nM
CC1(C)CC(=O)N([C@@H]2CCOc3ccc(C(=O)N[C@H]4c5ccccc5OC(C)(C)[C@]4(C)O)cc32)C(=N)N1 [Example 184, (4R)-N-[(3R,4S)-3-hydroxy-2,2,3-trimethyl-chroman-4-yl]-4-(2-imino-4,4-dimethyl-6-oxo-hexahydropyrimidin-1-yl)chromane-6-carboxamide] | 105 nM
COC1COc2ccc(C(=O)N[C@@H]3c4ccccc4OC[C@]3(C)O)cc2C1N1C(=N)NC(C)(C)CC1=O (stereo partly drawn) [Example 185, N-[(3R,4R)-3-hydroxy-3-methyl-chroman-4-yl]-4-(2-imino-4,4-dimethyl-6-oxo-hexahydropyrimidin-1-yl)-3-methoxy-chromane-6-carboxamide] | 50.3 nM
COC1COc2ccc(C(=O)N[C@@H]3c4ccccc4OC[C@@]3(C)O)cc2C1N1C(=N)NC(C)(C)CC1=O (stereo partly drawn) [Example 186, N-[(3S,4R)-3-hydroxy-3-methyl-chroman-4-yl]-4-(2-imino-4,4-dimethyl-6-oxo-hexahydropyrimidin-1-yl)-3-methoxy-chromane-6-carboxamide] | 70 nM
CC1(C)CC(=O)N(C2CCS(=O)(=O)c3ccc(C(=O)N[C@@H]4c5ccccc5C[C@]4(C)O)cc32)C(=N)N1 (stereo partly drawn) [Example 187, N-[(1R,2S)-2-hydroxy-2-methyl-indan-1-yl]-4-(2-imino-4,4-dimethyl-6-oxo-hexahydropyrimidin-1-yl)-1,1-dioxo-3,4-dihydro-2H-thiochromane-6-carboxamide] | 66.7 nM
CC1(C)CC(=O)N(C2CCS(=O)(=O)c3ccc(C(=O)N[C@@H]4c5ccccc5C[C@@]4(C)O)cc32)C(=N)N1 (stereo partly drawn) [Example 188, N-[(1R,2R)-2-hydroxy-2-methyl-indan-1-yl]-4-(2-imino-4,4-dimethyl-6-oxo-hexahydropyrimidin-1-yl)-1,1-dioxo-3,4-dihydro-2H-thiochromene-6-carboxamide] | 203 nM
